Experimental data from PMC5942779, “Identification of a peptide inhibitor for the histone methyltransferase WHSC1” (PLoS ONE, 2018).
Square brackets hold non-standard residues; d marks the D form. Peptide text beside a SMILES is read from it. Nle = CCCC[C@H](N)C(=O)O

Tests used:
WHSC1 941–1240 = biological target: T1, WHSC1 941–1240 (Homo sapiens, UniProt O96028); assay: WHSC1 941–1240 radiometric biochemical assay (3H methyl transfer from SAM to biotinylated H4 peptide); conditions: for IC50: radiometric, 10 nM enzyme, 1 μM total SAM, 0.5 μM H4 peptide, 30 min pre-incubation, 120 min, 25°C, pH 8.0, three independent replicates
T1 construct: GST-tagged WHSC1 941–1240 (#51026); GST; purchased BPS Bioscience 51026
T1 sequence (O96028 941-1240): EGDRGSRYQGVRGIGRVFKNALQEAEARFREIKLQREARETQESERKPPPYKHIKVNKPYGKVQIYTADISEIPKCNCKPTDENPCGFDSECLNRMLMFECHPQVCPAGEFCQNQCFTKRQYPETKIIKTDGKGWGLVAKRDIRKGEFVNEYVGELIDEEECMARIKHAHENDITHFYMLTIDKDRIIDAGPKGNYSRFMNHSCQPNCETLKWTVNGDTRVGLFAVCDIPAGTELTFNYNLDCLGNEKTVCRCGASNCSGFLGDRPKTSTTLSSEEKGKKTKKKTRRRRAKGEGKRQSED
Description: (§1) An optimized 1× assay buffer containing 20 mM Tris-HCl (pH 8.0), 1 mM DTT, 0.005% Tween-20, and 0.01% bovine skin gelatin was utilized. […] The reaction was quenched after 120 minutes by adding excess (1 mM final concentration) unlabeled SAM. Quenched reactions were transferred onto streptavidin coated Flashplates (PerkinElmer), incubated for 2 hours, washed 1x with 0.1% Tween 20, and read on a Topcount instrument (PerkinElmer).
(§2) The reaction was initiated by adding 10 μL substrate mix containing peptide and SAM. Concentration–response curves in units of percent inhibition were plotted as a function of inhibitor concentration and fitted in GraphPad Prism to determine the IC50 values using a four-parameter logistic equation.

WHSC1L1 1054–1285 = biological target: T2, WHSC1L1 1054–1285 (Homo sapiens, UniProt Q9BZ95); assay: WHSC1L1 1054–1285 radiometric biochemical assay; conditions: 40 nM enzyme, 6 μM total SAM, 0.8 μM peptide, 30 min pre-incubation, three independent replicates
T2 construct: A WHSC1L1 construct containing amino acids 1054–1285; His-TEV (N, cleaved yes); made in house; host or cells: E. coli
T2 sequence (Q9BZ95 1054-1285): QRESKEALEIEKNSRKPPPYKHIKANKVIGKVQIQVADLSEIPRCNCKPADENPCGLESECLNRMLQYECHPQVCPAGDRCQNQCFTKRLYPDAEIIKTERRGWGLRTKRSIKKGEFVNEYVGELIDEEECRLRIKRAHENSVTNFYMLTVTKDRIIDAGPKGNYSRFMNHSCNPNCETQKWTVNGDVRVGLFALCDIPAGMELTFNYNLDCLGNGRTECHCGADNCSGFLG
Description: as §1, §2

[1] = biological target: T3, Avi-tagged WHSC1 941–1240 (Homo sapiens, UniProt O96028); assay: SPR binding assay, Avi-tagged WHSC1 941–1240
T3 construct: purchased BPS Bioscience 111207
T3 sequence (O96028 941-1240 limits assumed): T1 sequence (O96028 941-1240)
Description: The SPR binding assay for Avi-tagged WHSC1 941–1240 was performed at 15°C using the Biacore T200 system (GE Healthcare, Marlborough, MA). The running buffer contained 25 mM Tris-HCl pH 8.0, 150 mM NaCl, 5 mM DTT, 0.05% Tween-20, 10 μM ZnCl2, 50 μM SAM, and 2% DMSO. Biotinylated WHSC1 was immobilized on a streptavidin-coated SA chip up to 3700 RU (response units). The reference cell was blocked with PEG-biotin. Peptide inhibitor was injected at a flow rate of 50 μL/min with a 3-fold, 5-point dilution series ending at a 20 μM top concentration. Association and dissociation times were 240 and 2400 seconds, respectively. Double-referenced data were analyzed globally using a 1:1 binding model in BIAevaluation software.
WHSC1 was immobilized on a streptavidin-coated chip and peptide inhibitor was co-injected with SAM utilizing a 3-fold, 5-point dilution series ending at a 20 μM top concentration.
WHSC1 was immobilized on a streptavidin-coated chip and peptide inhibitor was either injected in the absence of cofactor (left panel), co-injected with SAH (middle panel), or co-injected with SFG (right panel) utilizing a 2-fold, 10-point dilution series ending at a 100 μM top concentration.

EZH1 = EZH1 (Homo sapiens, UniProt Q92800); assay: HMT panel biochemical assay, EZH1; conditions: HMT selectivity panel
EZH1, sequence (Q92800 whole entry, species assumed): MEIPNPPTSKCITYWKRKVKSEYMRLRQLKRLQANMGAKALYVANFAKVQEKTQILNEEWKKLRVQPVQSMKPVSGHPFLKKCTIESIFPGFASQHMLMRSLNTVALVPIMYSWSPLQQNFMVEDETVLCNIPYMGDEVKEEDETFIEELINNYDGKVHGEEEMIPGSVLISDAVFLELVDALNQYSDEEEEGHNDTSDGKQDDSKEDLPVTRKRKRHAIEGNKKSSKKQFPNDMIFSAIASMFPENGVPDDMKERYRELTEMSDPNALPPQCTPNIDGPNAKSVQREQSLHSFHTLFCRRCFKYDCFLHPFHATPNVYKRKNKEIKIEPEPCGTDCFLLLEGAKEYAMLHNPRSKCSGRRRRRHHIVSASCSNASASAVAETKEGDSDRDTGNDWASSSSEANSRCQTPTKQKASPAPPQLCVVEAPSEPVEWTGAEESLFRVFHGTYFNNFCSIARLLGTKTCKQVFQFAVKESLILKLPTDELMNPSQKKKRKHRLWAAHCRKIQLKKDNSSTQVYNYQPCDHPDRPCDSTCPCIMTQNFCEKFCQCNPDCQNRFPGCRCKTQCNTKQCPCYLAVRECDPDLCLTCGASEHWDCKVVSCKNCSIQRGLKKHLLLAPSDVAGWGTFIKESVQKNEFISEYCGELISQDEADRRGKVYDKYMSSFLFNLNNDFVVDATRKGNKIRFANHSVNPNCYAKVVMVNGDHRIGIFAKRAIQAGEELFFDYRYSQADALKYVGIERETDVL
EZH1, sequence (O75530 whole entry partner, species assumed): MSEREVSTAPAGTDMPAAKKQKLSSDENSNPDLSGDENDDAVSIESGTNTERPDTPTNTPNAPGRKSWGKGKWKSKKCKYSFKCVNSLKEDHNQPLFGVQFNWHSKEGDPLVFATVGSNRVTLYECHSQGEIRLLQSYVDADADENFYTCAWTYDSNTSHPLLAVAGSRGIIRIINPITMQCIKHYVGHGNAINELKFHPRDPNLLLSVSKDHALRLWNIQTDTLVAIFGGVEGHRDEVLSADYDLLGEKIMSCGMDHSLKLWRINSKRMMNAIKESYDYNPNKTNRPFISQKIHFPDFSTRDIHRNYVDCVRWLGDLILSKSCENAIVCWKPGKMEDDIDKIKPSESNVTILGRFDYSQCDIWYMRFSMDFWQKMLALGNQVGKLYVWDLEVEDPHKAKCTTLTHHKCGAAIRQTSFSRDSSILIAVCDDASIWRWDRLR
EZH1, sequence (Q15022 whole entry partner, species assumed): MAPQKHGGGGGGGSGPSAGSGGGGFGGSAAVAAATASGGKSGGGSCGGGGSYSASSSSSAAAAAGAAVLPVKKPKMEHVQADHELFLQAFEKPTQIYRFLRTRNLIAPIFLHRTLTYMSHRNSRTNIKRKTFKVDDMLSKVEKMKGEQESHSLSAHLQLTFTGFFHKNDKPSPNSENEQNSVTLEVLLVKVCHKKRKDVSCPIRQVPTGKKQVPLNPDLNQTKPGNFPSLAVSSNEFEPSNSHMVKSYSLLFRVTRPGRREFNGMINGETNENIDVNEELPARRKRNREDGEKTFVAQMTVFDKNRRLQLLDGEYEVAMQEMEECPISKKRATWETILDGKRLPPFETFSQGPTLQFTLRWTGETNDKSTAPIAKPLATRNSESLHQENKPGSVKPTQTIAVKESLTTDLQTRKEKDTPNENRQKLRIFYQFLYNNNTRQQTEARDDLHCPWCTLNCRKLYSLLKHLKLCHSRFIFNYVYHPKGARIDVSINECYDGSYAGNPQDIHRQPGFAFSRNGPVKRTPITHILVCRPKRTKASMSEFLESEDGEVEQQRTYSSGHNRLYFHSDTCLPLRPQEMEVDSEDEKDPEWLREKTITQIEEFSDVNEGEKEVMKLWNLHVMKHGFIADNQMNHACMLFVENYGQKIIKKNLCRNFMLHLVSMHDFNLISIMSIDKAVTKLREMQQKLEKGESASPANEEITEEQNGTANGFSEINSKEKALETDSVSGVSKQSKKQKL

EZH2 = EZH2 (Homo sapiens, UniProt Q15910); assay: HMT panel biochemical assay, EZH2; conditions: HMT selectivity panel
EZH2, sequence (Q15910 whole entry, species assumed): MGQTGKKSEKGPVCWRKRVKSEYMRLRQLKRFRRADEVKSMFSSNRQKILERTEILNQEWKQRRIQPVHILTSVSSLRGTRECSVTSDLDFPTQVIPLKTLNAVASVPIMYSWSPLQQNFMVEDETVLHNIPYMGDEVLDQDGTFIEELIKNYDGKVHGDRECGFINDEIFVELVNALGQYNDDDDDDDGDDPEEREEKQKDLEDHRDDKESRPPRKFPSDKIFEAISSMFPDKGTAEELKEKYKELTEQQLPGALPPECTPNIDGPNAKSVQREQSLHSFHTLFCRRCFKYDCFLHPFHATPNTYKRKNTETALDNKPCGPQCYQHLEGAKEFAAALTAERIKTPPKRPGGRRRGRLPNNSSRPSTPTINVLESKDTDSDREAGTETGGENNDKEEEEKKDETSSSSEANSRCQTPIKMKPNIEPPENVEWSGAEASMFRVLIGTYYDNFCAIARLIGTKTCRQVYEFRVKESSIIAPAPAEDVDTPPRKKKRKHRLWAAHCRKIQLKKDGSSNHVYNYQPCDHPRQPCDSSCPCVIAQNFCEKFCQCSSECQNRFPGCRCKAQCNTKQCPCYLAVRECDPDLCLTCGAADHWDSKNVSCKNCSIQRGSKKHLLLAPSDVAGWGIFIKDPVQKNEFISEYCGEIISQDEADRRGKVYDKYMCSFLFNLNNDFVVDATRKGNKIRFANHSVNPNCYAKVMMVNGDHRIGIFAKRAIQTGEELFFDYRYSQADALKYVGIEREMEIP
EZH2, sequence (O75530 whole entry partner, species assumed): as the sequence (O75530 whole entry partner, species assumed) above
EZH2, sequence (Q15022 whole entry partner, species assumed): as the sequence (Q15022 whole entry partner, species assumed) above

G9a = biological target: T4, G9a (Homo sapiens, UniProt Q96KQ7); assay: HMT panel biochemical assay, G9a; conditions: HMT selectivity panel
T4 sequence (Q96KQ7 1-1210): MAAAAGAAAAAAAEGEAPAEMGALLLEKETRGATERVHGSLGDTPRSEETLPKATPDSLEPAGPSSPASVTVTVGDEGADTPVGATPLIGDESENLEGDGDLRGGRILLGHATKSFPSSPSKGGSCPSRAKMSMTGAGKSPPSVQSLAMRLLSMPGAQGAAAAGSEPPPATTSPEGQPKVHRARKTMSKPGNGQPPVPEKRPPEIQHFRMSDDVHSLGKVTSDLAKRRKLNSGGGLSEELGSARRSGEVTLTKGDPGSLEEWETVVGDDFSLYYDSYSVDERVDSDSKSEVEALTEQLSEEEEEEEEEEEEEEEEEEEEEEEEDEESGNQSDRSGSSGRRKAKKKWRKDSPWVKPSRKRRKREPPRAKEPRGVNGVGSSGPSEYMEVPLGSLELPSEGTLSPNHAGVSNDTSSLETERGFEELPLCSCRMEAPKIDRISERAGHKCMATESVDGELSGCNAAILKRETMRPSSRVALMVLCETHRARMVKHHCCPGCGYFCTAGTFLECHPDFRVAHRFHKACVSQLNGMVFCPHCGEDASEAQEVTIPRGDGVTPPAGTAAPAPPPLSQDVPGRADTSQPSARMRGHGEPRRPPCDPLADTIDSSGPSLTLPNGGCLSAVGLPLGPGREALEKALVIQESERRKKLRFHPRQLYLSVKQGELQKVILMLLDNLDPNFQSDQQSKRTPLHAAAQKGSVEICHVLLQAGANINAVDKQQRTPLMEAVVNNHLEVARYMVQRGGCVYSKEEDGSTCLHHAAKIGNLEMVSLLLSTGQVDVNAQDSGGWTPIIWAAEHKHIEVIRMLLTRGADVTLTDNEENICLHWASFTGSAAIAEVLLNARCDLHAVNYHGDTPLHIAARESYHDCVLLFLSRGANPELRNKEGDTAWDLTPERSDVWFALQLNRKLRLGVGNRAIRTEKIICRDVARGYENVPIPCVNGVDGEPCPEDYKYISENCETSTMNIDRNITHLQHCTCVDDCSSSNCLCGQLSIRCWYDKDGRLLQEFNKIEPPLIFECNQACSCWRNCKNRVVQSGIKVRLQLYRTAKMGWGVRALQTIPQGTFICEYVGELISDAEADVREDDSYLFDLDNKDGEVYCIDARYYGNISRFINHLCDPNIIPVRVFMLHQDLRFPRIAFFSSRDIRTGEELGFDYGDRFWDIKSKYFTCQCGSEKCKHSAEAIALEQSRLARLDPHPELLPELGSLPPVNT

SMYD2 = SMYD2 (Homo sapiens, UniProt Q9NRG4); assay: HMT panel biochemical assay, SMYD2; conditions: HMT selectivity panel
SMYD2, sequence (Q9NRG4 whole entry, species assumed): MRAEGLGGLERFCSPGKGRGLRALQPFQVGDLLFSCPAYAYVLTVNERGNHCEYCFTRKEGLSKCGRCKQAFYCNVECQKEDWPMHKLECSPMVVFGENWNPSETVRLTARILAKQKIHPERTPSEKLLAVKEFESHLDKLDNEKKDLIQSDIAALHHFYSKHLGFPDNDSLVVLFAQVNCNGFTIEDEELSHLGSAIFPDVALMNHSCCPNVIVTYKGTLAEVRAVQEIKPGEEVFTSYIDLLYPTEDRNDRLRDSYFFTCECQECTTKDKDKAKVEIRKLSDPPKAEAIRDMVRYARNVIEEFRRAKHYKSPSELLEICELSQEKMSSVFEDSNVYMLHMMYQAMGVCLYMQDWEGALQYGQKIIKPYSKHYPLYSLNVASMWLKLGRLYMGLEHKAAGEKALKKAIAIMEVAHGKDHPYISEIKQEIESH

SETDB1 = SETDB1 (Homo sapiens, UniProt Q15047); assay: HMT panel biochemical assay, SETDB1; conditions: HMT selectivity panel
PRMT6 = PRMT6 (Homo sapiens, UniProt Q96LA8); assay: HMT panel biochemical assay, PRMT6; conditions: HMT selectivity panel
PRMT6, sequence (Q96LA8 whole entry, species assumed): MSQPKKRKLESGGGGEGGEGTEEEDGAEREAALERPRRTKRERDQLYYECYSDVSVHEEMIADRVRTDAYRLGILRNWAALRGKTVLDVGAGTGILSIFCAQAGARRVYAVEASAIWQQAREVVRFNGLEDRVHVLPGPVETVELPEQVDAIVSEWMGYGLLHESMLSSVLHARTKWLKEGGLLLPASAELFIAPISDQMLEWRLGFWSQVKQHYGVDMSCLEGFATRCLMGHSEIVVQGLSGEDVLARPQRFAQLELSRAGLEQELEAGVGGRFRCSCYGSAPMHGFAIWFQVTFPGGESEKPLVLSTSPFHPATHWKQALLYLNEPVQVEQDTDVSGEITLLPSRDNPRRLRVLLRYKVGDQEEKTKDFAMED

[2] = ratio of WHSC1 941–1240 biochemical IC50 values

Compound	IC50 (WHSC1 941–1240)	IC50 (WHSC1L1 1054–1285)	other results
CCCC[C@H](NC(=O)[C@@H](NC(=O)CNC(=O)CNC(=O)[C@H](CCCNC(=N)N)NC(=O)[C@H](CCCNC(=N)N)NC(=O)[C@H](C)NC(=O)[C@H](CC(C)C)NC(=O)[C@H](CCCNC(=N)N)NC(C)=O)C(C)C)C(=O)N[C@@H](CCCNC(=N)N)C(=O)N[C@H](C(=O)N[C@@H](CO)C(=O)NCC(=O)N[C@@H](CC(C)C)C(=O)N[C@H](C(N)=O)[C@@H](C)CC)[C@@H](C)CC [PTD1] (Ac-RLARRGGV[Nle]RISGLI-NH2)	0.088 ± 0.005 µM	1.1 ± 0.1 µM	fold more potent towards WHSC1 than the 5 residue Nle peptide (PTD2) (WHSC1 941–1240; [2]): 250 fold; SPR behaviour on the sensor surface ([1]; at concentrations greater than 1 μM, affinity to WHSC1 could not be determined): non-specific matrix interactions
CCCC[C@H](NC(=O)[C@@H](NC(=O)CNC(C)=O)C(C)C)C(=O)N[C@@H](CCCNC(=N)N)C(=O)N[C@H](C(N)=O)[C@@H](C)CC [PTD2]			SPR binding in the absence of cofactor ([1]; no cofactor, 2-fold, 10-point dilution, top concentration 100 μM): no binding is observed; IC50 (EZH1): > 200 µM; IC50 (EZH2): > 200 µM; IC50 (G9a): > 200 µM; IC50 (SMYD2): > 200 µM; IC50 (SETDB1): > 200 µM; IC50 (PRMT6): > 200 µM
CCCC[C@H](NC(=O)[C@@H](NC(=O)CNC(=O)CNC(C)=O)C(C)C)C(=O)N[C@@H](CCCNC(=N)N)C(N)=O [PTD4] (Ac-GGV[Nle]R-NH2)	180 ± 20 µM	320 ± 30 µM	
CCCC[C@H](NC(=O)[C@@H](NC(=O)CNC(=O)CNC(=O)[C@H](CCCNC(=N)N)NC(C)=O)C(C)C)C(N)=O [PTD5] (Ac-RGGV[Nle]-NH2)	190 ± 20 µM	110 ± 10 µM	
CCCC[C@H](NC(=O)[C@@H](NC(C)=O)C(C)C)C(=O)N[C@@H](CCCNC(=N)N)C(=O)N[C@H](C(=O)N[C@@H](CO)C(N)=O)[C@@H](C)CC [PTD6] (Ac-V[Nle]RIS-NH2)	110 ± 20 µM	3 ± 0.3 µM	
CCCC[C@H](NC(C)=O)C(=O)N[C@@H](CCCNC(=N)N)C(=O)N[C@H](C(=O)N[C@@H](CO)C(=O)NCC(N)=O)[C@@H](C)CC [PTD7] (Ac-[Nle]RISG-NH2)	200 ± 40 µM	> 1000 µM	
CCCC[C@H](NC(=O)[C@@H](NC(=O)CNC(=O)CNC(=O)[C@@H](NC(=O)[C@H](C)NC(=O)[C@@H]1CCCN1C(=O)[C@H](C)NC(=O)[C@H](CO)NC(C)=O)[C@@H](C)O)C(C)C)C(=O)N[C@@H](CCCCN)C(=O)N1CCC[C@H]1C(=O)N[C@@H](Cc1c[nH]cn1)C(=O)N[C@@H](CCCNC(=N)N)C(=O)N[C@@H](Cc1ccc(O)cc1)C(=O)N[C@@H](CCCNC(=N)N)C(N)=O [PTD8]	13 ± 1 µM	190 ± 30 µM	fold loss in WHSC1 potency compared with PTD1 (WHSC1 941–1240; [2]): 150 fold
CCCC[C@H](NC(=O)[C@@H](NC(=O)CNC(C)=O)C(C)C)C(=O)N[C@@H](CCCCN)C(=O)N1CCC[C@H]1C(N)=O [PTD9] (Ac-GV[Nle]KP-NH2)	130 ± 20 µM	370 ± 40 µM	fold decrease in WHSC1 potency relative to PTD2 (WHSC1 941–1240; [2]): 6 fold
Ac-GVARI-NH2 [PTD3]	640 ± 70 µM	> 1000 µM	fold decrease in WHSC1 potency relative to PTD2 (WHSC1 941–1240; [2]): 30 fold
